Measured values from US20060166901A1, “Compositions comprising O-acetylsalicyl derivatives of aminocarbohydrates and amino acids” (priority 2005, published 2006).

Legend:
[1] = patients, recent studies; cited from earlier work
[2] = test system: osteoarthritis of both knees; assay: Oral administration to a subject with osteoarthritis of both knees, relief of knee pain and adverse reactions; type: in vivo, human; conditions: earlier treatment
Method: The subject took an oral dose of 100 mg N—(O-acetylsalicyl)-L-tyrosine ethyl ester.
Subject, weight 90 kg, had 4 year history of osteoarthritis of both knees which was confirmed by X-ray and MRI showing diminished articular space. Symptoms of pain upon walking and at rest, as well as tenderness to palpation, had been consistently present, varying in intensity from moderate to severe.
[…] […] The subject did intensive physical activities during the next 10 hours that consisted of farming manual labor that included climbing up and down the banks of a pond to cut off cattail weeds at root level, and manually carrying stalks up the pond bank to level ground. Other physical exertions included numerous mounting and demounting from a farm tractor that pulled a trailer containing cattail weeds to dumping sites.

[3] = nonsteroidal anti-inflammatory agents

SMILES: Cc1ccc(-c2cc(C(F)(F)F)nn2-c2ccc(S(N)(=O)=O)cc2)cc1 [celecoxib]
- rates of heart attack (cardiac arrest) versus the control group [1]: higher rates of heart attack

SMILES: CC(C)Cc1ccc(C(C)C(=O)O)cc1 (centres unmarked) [ibuprofen]
- relief of osteoarthritis symptoms (subject's history) [2, 3]: had not been relieved

SMILES: COc1ccc2cc([C@H](C)C(=O)O)ccc2c1 [naproxen]
- relief of osteoarthritis symptoms (subject's history) [2, 3]: had not been relieved

SMILES: C[C@]12C=CC(=O)C=C1CC[C@@H]1[C@@H]2C(=O)C[C@@]2(C)[C@H]1CC[C@]2(O)C(=O)CO [prednisone]
- relief of osteoarthritis symptoms (subject's history) ([2]; oral, 10-30 mg daily): relieved incompletely

SMILES: CS(=O)(=O)c1ccc(C2=C(c3ccccc3)C(=O)OC2)cc1 [rofecoxib, Rofecoxib]
- rates of heart attack (cardiac arrest) versus the control group [1]: higher rates of heart attack
